Test results published in publication PMC11206988, “Study on the Effect of Pharmaceutical Excipient PEG400 on the Pharmacokinetics of Baicalin in Cells Based on MRP2, MRP3, and BCRP Efflux Transporters” (Pharmaceutics, 2024).
Like-named read-outs stand apart in the source and are kept apart here.

Columns and labels:
MRP2 = biological target: T1, MRP2 (Homo sapiens, UniProt Q92887); experiment: Transport of baicalin across MDCK II-MRP2 cell monolayer (transwell); format: in vitro ADME
T1 construct: expressed in transfected cells; host or cells: MDCK II
T1 sequence (Q92887 whole entry): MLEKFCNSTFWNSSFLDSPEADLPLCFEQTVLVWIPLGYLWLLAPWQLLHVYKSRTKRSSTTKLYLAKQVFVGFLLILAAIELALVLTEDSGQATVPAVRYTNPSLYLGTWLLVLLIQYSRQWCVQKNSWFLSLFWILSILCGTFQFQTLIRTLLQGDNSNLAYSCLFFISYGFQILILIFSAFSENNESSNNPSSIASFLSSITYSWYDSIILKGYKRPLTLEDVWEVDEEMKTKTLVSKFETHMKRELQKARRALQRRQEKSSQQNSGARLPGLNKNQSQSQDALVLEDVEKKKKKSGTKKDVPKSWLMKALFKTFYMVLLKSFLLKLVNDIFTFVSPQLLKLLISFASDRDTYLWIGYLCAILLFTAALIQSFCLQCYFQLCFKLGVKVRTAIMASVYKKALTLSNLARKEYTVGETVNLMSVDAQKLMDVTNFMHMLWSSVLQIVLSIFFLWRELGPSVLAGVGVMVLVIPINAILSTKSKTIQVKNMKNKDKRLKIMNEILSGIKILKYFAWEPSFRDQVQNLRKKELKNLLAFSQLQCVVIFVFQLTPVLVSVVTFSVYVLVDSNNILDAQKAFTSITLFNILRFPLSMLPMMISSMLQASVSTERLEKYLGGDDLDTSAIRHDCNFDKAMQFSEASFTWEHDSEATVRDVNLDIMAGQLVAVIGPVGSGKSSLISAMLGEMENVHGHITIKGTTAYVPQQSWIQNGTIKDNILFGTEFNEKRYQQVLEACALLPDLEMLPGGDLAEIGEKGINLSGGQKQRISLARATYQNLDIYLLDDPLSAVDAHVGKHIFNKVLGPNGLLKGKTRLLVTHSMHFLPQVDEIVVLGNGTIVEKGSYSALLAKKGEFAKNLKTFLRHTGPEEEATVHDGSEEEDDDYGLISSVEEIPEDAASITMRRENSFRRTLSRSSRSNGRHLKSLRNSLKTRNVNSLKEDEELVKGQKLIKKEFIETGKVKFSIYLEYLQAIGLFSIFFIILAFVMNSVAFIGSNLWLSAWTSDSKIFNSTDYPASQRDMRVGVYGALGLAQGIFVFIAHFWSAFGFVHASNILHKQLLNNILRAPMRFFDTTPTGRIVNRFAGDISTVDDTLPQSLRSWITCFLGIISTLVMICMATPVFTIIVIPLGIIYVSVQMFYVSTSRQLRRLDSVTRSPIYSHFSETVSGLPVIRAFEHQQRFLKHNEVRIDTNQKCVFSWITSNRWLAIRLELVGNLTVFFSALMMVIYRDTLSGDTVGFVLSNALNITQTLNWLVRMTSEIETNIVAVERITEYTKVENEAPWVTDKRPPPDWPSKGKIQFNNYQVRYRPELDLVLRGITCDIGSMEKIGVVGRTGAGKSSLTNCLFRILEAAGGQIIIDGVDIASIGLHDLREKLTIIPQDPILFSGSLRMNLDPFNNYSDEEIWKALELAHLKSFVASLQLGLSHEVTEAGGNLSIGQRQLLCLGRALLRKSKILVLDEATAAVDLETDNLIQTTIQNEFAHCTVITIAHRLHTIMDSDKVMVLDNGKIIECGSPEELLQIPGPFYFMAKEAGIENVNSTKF
Method: The cells were inoculated at a density of 0.5 mL (1 × 10^5) in the upper layer of the transwell plate (AP side), and the culture was changed daily after the lower layer was added with 1.5 mL of complete medium without cells every other day. After 5–7 days of growth, the supernatant was aspirated and discarded, and the cell monolayer was rinsed twice with 37 °C Hank’s Balanced Salt Solution (HBSS, pH 7.4). The electrical resistance of the cell monolayer compartments was measured with a resistivity meter (TEER), and the integrity of the cell monolayer was monitored using TEER. The differentiation of MDCK II-WT, MDCK II-MRP2, MDCK II-MRP3, and MDCK II-BCRP cells was examined by determining sodium fluorescein permeability prior to transit experiments. This was done in order to determine the integrity of the cell monolayer. When the TEER value of the cell monolayer was greater than 150 Ω·cm^2 and the MDCK II-MRP2, MDCK II-MRP3, and MDCK II-BCRP sodium fluorescein permeability was less than 0.5 × 10^−6 cm/s or the MDCK II-WT sodium fluorescein permeability was less than 1 × 10^−6 cm/s, the cell monolayer was considered intact and suitable for transit experiments. TEER = (TEERcell monolayer − TEERblank) × Aarea(1) wherein TEERcell monolayer is the resistance of the cell monolayer read directly from the Millicell ERS-2 resistivity meter, and TEERblank is the resistance read by inserting a blank HBSS (no cells) only. Aarea is the surface area of the filter membrane, 1.12 cm^2.
In this experiment, a 100 μM baicalin solution (dissolved in HBSS) containing different concentrations of PEG400 (0.25%, 0.5%, and 1%) was employed as the test solution, while a solution without PEG400 was used as the blank test solution, which was added to AP or BL chambers, respectively. In the top to basolateral (AP-BL) transport experiment, the 0.5 mL sample added to the apical side (AP) was utilized as the supply room, and the HBSS preheated to 1.5 mL 37 °C was added to the basolateral (BL) as the receiving chamber. Conversely, in the basal low lateral to top (BL-AP) transport experiment, the 1.5 mL sample (dissolved in HBSS) was added to the BL side as the supply room, and the 0.5 mL preheated HBSS was added as a receiving room on the AP side. Once the aforementioned steps had been completed, the transwell was placed on a 37 °C thermostatic oscillator at 60 r/min, and 100 μL was withdrawn from the receiving cell or 10 μL from the supply chamber at 30, 60, 90, and 120 min, depending on the experiment, and replenished with an equal volume of blank 37 °C preheated HBSS. The samples were utilized to precipitate the proteins with 100 μL of methanol containing the internal standard for 10 min. After centrifugation at 16,000× g for 15 min at 4 °C, the supernatant was collected in a volume of 70 μL. The contents were determined by UPLC-MS/MS, and apparent permeability coefficients (PAPP) and efflux ratios (ER) were calculated.
The formulas for calculating Papp and ER of monolayer and monolayer are as follows:(2) Papp=dQ/dt/AC0 wherein dQ/dt (ng/mL·s) is the transit rate (ng/mL·s); A is the membrane area (1.12 cm^2); and C0 (ng/mL) is the initial concentration of the sample in the supply chamber. ER = PappBL-AP/PappAP-BL (3) wherein PappBL-AP is the apparent permeability coefficient when the BL is added to the sample, and PappAP-BL is the apparent permeability coefficient when the sample is added at the top side (AP).

[1] = system: MDCK II-WT, MDCK II-MRP2, MDCK II-BCRP and MDCK II-MRP3 cells; experiment: MTT cell proliferation assay; format: cell-based; conditions: experimentally selected concentrations
Description: The effect of PEG400 on baicalin transport was investigated in MDCKII-WT, MDCKII-MRP2, MDCK II-BCRP, and MDCK II-MRP3 cell monolayer models. First, an MTT cell proliferation assay was used to evaluate the effects of baicalin as well as PEG400 concentration on […]. […] The results of the transporter experiments are shown in Figure 5 and Table 2, which indicate that the exocytosis ratio of MDCKII-WT cells in the control group for the transport of the substrate baicalin was 2.58 ± 0.27. This implies that the transport of baicalin through the cell membrane is mediated by a transporter. For the MDCK-WT cell model, the exocytosis ratios of baicalin decreased to 1.94 ± 0.27, 1.53 ± 0.14, and 1.19 ± 0.12, respectively, in response to low, medium, and high concentrations of PEG400. […] Consistent results were obtained in the MDCK II-MRP2 and MDCK II-BCRP cell models, where the percentage of baicalin efflux was reduced, from 2.45 ± 0.04 and 3.01 ± 0.05 to 2.22 ± 0.17, 1.08 ± 0.09, and 0.8 ± 0.04, respectively, and 1.59 ± 0.06, 1.02 ± 0.04, and 0.8 ± 0.02 in a concentration-dependent decrease. The results of the efflux ratio of baicalin in MDCK-WT, MDCK-MRP2, and MDCK-BCRP cell monolayers by 0.25%, 0.5%, and 1% PEG400 are shown in Figure 5f.
Figure 4 The effect diagram of cell vitality. (a,b) The effects of different concentrations of baicalin and PEG400 on the survival of MDCK II-WT cells. […]

[2] = pH 7.4, MDCK II-MRP2, 100 μM BG + 0.25% PEG400
[3] = pH 7.4, MDCK II-MRP2, 100 μM BG + 0.5% PEG400
[4] = pH 7.4, MDCK II-MRP2, 100 μM BG + 1% PEG400
[5] = pH 7.4, MDCK II-MRP2, 100 μM BG alone

O=C(O)[C@H]1O[C@@H](Oc2cc3oc(-c4ccccc4)cc(=O)c3c(O)c2O)[C@H](O)[C@@H](O)[C@@H]1O [BG, Baicalein-7-O-β-D-glucuronide]
Papp A→B at 120 min, 100 μM (MRP2; [2]): 12.7 ± 0.2 nm/s | Papp B→A at 120 min, 100 μM (MRP2; [2]): 28.3 ± 2.6 nm/s | efflux ratio at 120 min, 100 μM (MRP2; pH 7.4, MDCK II-MRP2, 100 μM BG + 0.25% PEG400, read-out: ER): 2.22 ± 0.17 | Papp A→B at 120 min, 100 μM (MRP2; [3]): 25.1 ± 0.7 nm/s | Papp B→A at 120 min, 100 μM (MRP2; [3]): 27.3 ± 3.1 nm/s | efflux ratio at 120 min, 100 μM (MRP2; pH 7.4, MDCK II-MRP2, 100 μM BG + 0.5% PEG400, read-out: ER): 1.08 ± 0.09 | Papp A→B at 120 min, 100 μM (MRP2; [4]): 31.7 ± 0.6 nm/s | Papp B→A at 120 min, 100 μM (MRP2; [4]): 25.3 ± 1.7 nm/s | efflux ratio at 120 min, 100 μM (MRP2; pH 7.4, MDCK II-MRP2, 100 μM BG + 1% PEG400, read-out: ER): 0.8 ± 0.04 | Papp A→B at 120 min, 100 μM (MRP2; [5]): 11.2 ± 1.1 nm/s | Papp B→A at 120 min, 100 μM (MRP2; [5]): 32.8 ± 2.7 nm/s | efflux ratio at 120 min, 100 μM (MRP2; pH 7.4, MDCK II-MRP2, 100 μM BG alone, read-out: ER): 2.45 ± 0.04 | effect on cell proliferation (MTT) [1]: no significant effect on the proliferation
